# Experimental data published in PMC6348381, “Discovery of an MLLT1/3 YEATS Domain Chemical Probe” (Angewandte Chemie (International Ed. in English), 2018).
# Experiments:
# Format in all cases: binding
# [1] = molecular target: T1, BRD4(2) (Homo sapiens, UniProt O60885); test: Thermal shift assay, BRD4(2)
# T1 construct: BRD4(2); purchased in-house (SGC bromodomain thermal shift / AlphaScreen panel)
# Protocol: (§1) II.VII Thermal Shift Assay[6]
# (§2) Thermal melting experiments were carried out using an Mx3005p Real Time PCR machine (Stratagene). Proteins were buffered in 10 mM HEPES pH 7.5, 500 mM NaCl and assayed in a 96-well plate at a final concentration of 2 μM in 20 μL volume. Compounds were added at a final concentration of 50 μM. SYPRO Orange (Molecular Probes) was added as a fluorescence probe at a dilution of 1:1000. Excitation and emission filters for the SYPRO-Orange dye were set to 465 nm and 590 nm, respectively. The temperature was raised with a step of 3 °C per minute from 25 °C to 96 °C and fluorescence readings were taken at each interval. The unfolding curves were fitted using the Boltzmann equation to determine the middle point of the transition.
# [2] = molecular target: T2, BAZ1B (Homo sapiens, UniProt Q9UIG0); test: Thermal shift assay, BAZ1B
# T2 construct: purchased in-house (SGC bromodomain thermal shift / AlphaScreen panel)
# T2 sequence (Q9UIG0 1-1483): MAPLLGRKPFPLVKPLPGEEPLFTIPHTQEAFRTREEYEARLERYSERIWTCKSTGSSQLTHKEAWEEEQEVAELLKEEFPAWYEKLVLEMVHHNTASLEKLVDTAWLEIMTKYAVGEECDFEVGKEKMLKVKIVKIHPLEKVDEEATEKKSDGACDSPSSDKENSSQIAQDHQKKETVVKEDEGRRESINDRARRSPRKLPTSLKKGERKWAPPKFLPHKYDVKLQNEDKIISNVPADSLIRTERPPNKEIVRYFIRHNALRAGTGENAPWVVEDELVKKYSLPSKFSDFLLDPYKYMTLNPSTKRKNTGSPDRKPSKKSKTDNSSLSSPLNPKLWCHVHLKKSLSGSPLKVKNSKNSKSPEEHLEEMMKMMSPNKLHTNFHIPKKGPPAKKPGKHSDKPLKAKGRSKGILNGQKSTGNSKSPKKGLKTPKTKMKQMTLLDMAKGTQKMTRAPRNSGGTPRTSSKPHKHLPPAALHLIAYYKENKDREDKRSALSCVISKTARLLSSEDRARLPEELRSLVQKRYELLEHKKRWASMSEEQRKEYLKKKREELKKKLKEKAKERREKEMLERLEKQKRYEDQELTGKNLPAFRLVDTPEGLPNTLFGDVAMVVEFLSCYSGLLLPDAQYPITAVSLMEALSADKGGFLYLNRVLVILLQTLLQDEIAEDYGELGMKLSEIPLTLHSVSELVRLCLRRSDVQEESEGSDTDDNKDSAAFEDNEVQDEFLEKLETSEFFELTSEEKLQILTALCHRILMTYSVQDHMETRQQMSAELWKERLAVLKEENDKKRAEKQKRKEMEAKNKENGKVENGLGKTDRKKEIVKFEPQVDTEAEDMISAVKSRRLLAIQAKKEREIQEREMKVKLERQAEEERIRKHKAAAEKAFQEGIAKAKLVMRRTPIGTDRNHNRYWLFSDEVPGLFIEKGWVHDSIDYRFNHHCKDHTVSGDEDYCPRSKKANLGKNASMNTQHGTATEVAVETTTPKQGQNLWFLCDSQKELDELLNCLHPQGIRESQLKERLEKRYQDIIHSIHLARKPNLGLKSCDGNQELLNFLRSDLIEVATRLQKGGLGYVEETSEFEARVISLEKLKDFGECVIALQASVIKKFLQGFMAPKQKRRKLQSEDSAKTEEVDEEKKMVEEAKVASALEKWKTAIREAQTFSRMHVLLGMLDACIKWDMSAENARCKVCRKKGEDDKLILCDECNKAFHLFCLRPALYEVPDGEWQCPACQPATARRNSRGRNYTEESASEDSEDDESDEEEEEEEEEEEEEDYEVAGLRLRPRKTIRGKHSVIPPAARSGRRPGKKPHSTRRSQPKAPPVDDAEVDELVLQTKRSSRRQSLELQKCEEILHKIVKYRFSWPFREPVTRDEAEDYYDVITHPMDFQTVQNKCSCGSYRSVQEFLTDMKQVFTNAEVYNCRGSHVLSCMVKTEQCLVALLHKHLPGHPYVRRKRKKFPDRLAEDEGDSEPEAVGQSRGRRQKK
# Protocol: as §1, §2
# [3] = molecular target: T3, BRPF3 (Homo sapiens, UniProt Q9ULD4); test: Thermal shift assay, BRPF3
# T3 construct: purchased in-house (SGC bromodomain thermal shift / AlphaScreen panel)
# T3 sequence (Q9ULD4 1-1205): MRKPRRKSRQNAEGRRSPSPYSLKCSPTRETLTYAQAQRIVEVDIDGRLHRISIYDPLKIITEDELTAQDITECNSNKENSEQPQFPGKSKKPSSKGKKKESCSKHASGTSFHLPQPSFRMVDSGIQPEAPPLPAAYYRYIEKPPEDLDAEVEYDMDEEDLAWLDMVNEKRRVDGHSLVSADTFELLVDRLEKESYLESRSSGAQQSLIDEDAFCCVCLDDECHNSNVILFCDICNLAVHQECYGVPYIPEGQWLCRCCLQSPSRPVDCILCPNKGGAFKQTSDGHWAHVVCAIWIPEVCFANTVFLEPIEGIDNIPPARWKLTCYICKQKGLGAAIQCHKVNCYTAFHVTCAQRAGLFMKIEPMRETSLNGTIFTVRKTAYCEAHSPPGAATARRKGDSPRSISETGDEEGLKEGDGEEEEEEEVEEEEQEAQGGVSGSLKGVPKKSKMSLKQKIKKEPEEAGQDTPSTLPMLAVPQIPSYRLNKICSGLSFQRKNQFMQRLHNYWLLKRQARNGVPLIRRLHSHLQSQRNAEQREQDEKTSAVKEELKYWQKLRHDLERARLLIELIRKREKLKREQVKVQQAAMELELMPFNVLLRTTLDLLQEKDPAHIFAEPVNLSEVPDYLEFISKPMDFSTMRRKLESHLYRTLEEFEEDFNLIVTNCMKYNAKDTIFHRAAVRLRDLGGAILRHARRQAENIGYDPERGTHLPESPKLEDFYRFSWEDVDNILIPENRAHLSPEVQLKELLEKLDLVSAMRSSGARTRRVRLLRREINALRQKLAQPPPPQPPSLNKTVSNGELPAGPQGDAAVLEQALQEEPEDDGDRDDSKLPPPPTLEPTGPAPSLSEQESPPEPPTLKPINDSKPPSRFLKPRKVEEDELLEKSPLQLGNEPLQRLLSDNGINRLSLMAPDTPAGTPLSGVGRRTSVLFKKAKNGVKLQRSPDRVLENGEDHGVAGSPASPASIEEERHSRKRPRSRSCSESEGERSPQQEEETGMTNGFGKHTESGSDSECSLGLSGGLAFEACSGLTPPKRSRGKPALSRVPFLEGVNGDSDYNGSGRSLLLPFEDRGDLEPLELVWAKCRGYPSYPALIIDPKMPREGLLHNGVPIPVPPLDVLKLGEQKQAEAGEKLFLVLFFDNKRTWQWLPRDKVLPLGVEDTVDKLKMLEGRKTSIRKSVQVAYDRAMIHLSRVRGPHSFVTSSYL
# Protocol: as §1, §2
"Thermal stabilisation, BRD4(2) ([1]; 10 µM compound concentration)","Thermal stabilisation, BAZ1B ([2]; 10 µM compound concentration)","Thermal stabilisation, BRPF3 ([3]; 10 µM compound concentration)",Compound,"Thermal stabilisation, BRD4(2) ([1]; 50 μM compound)","Thermal stabilisation, BAZ1B ([2]; 50 μM compound)","Thermal stabilisation, BRPF3 ([3]; 50 μM compound)"
6.575,-0.23,1,"CCOC(=O)Nc1cc(-c2ccc(C)c(NS(C)(=O)=O)c2)nn2c(C)nnc12 [Bromosporine, reference compound]",,,
,,,COC(=O)c1ccc(C(=O)Nc2ccc3[nH]c(CN4CCCCC4)nc3c2)cc1 [Compound 1],0.715,1.03,1.015
,,,C[C@H]1CCCN1Cc1nc2cc(NC(=O)c3ccc4c(cnn4C)c3)ccc2[nH]1 [Compound 92],0.1,-0.19,-0.245
